Where two headings read alike, the source gives them in different places.
System: P. falciparum (NF54 or 3D7 strain) in infected human erythrocytes
Assay: Assay for P. falciparum proliferation in infected human blood cells (SYBR Green)
Type: cell-based
Conditions: Plasmodium falciparum, Erythrocyte, read-out: EC50 (nM), inhibitory efficacy in delaying P. falciparum proliferation in infected human blood cells
Method: Assay for P. falciparum Proliferation in Infected Human Blood Cells
Compounds of the invention can be assayed to measure their capacity to inhibit proliferation of P. falciparum parasitemia in infected red blood cells. This parasite proliferation assay measures the increase in parasite DNA content using a DNA intercalating dye, SYBR Green® (INVITROGEN®) which has a high affinity for double stranded DNA.
NF54 or 3D7 P. falciparum strain is grown in complete culturing media until parasitemia reaches 3% to 8% with O+ human erythrocytes. […] 20 μl of screening media is dispensed into 384 well assay plates. 50 nl of compounds of the invention (in DMSO), including antimalarial controls (mefloquine, pyrimethamine and artemisinin), are then transferred into the assay plates, as well as DMSO alone to serve as a negative control for inhibition. Then 30 μl of a suspension of a NF54 or 3D7 P. falciparum infected erythrocytes in screening media is dispensed into the assay plates such that the final hematocrit is 2.5% with a final parasitemia of 0.3%. The plates are placed in a 37° C. incubator for 72 hours in a low oxygen environment containing 93% N2, 4% CO2, and 3% O2 gas mixture. 10 μl of lysis buffer (saponin, triton-X, EDTA) containing a 10× solution of SYBR Green I® in RPMI media is dispensed into the plates. The plates are lidded and kept at room temperature overnight for the lysis of the infected red blood cells. The fluorescence intensity is measured (excitation […], emission 530 nm) using the Envision™ system (Perkin Elmer). The percentage inhibition of 50%, […], is calculated for each compound.

[1] = NF54 or 3D7 strain, 72 hours, SYBR Green fluorescence

| EC50 [1] | SMILES | EC50 (72 h) |
| --- | --- | --- |
| 342 nM | CN(Cc1ccn2ncc(-c3ccc(C(F)(F)F)cc3)c2c1)c1ccc(F)cc1 [Example 2, 4-fluoro-N-methyl-N-((3-(4-(trifluoromethyl)phenyl)pyrazolo[1,5-a]pyridine-5-yl)methyl)aniline] |  |
| 94 nM | CN(C(=O)c1ccn2ncc(-c3ccc(C(F)(F)F)cc3)c2c1)c1ccc(Cl)cc1 [Example 3, N-(4-chlorophenyl)-N-methyl-3-(4-(trifluoromethyl)phenyl)pyrazolo[1,5-a]pyridine-5-carboxamide] |  |
| 46 nM | CN(C(=O)c1ccn2ncc(-c3ccc(C(F)(F)F)cc3)c2c1)c1ccc(F)cc1 [Example 4, N-(4-fluorophenyl)-N-methyl-3-(4-(trifluoromethyl)phenyl)pyrazolo[1,5-a]pyridine-5-carboxamide] |  |
| 88 nM | Cc1ccc(N(C)C(=O)c2ccn3ncc(-c4ccc(C(F)(F)F)cc4)c3c2)nc1 [Example 5, N-methyl-N-(5-methylpyridin-2-yl)-3-(4-(trifluoromethyl)phenyl)pyrazolo[1,5-a]pyridine-5-carboxamide] |  |
| 284 nM | CN(Cc1ccn2ncc(-c3ccc(C(F)(F)F)cc3)c2c1)c1ccc(Cl)cc1 [Example 6, 4-chloro-N-methyl-N-((3-(4-(trifluoromethyl)phenyl)pyrazolo[1,5-a]pyridine-5-yl)methyl)aniline] |  |
| 975 nM | Cc1ccc(N(C)Cc2ccn3ncc(-c4ccc(C(F)(F)F)cc4)c3c2)nc1 [Example 7, N,5-dimethyl-N-((3-(4-(trifluoromethyl)phenyl)pyrazolo[1,5-a]101yridine-5-yl)methyl)pyridine-2-amine] |  |
| 532 nM | Fc1ccc(OCc2ccn3ncc(-c4ccc(C(F)(F)F)cc4)c3c2)cc1 [Example 8, 5-((4-fluorophenoxy)methyl)-3-(4-(trifluoromethyl)phenyl)pyrazolo[1,5-a]pyridine] |  |
| 6 nM | COCCN(C(=O)c1ccn2ncc(-c3ccc(C(F)(F)F)cc3)c2c1)c1ccc(C#N)cc1 [Example 9, N-(4-cyanophenyl)-N-(2-methoxyethyl)-3-(4-(trifluoromethyl)phenyl)pyrazolo[1,5-a]pyridine-5-carboxamide] |  |
| 7 nM | CN(C)CCN(C(=O)c1ccn2ncc(-c3ccc(C(F)(F)F)cc3)c2c1)c1ccc(C#N)cc1 [Example 10, N-(4-cyanophenyl)-N-(2-(dimethylamino)ethyl)-3-(4-(trifluoromethyl)phenyl)pyrazolo[1,5-a]pyridine-5-carboxamide] |  |
| 6 nM | N#Cc1ccc(N(CC2CCOCC2)C(=O)c2ccn3ncc(-c4ccc(C(F)(F)F)cc4)c3c2)cc1 [Example 11, N-(4-cyanophenyl)-N-((tetrahydro-2H-pyran-4-yl)methyl)-3-(4-(trifluoromethyl)phenyl)pyrazolo[1,5-a]pyridine-5-carboxamide] |  |
| 9 nM | CS(=O)(=O)c1ccc(N(CC2CCOCC2)C(=O)c2ccn3ncc(-c4ccc(C(F)(F)F)cc4)c3c2)cc1 [Example 12, N-(4-(methylsulfonyl)phenyl)-N-((tetrahydro-2H-pyran-4-yl)methyl)-3-(4-(trifluoromethyl)phenyl)pyrazolo[1,5-a]pyridine-5-carboxamide] |  |
| 134 nM | Cc1cncc(N(C)C(=O)c2ccn3ncc(-c4ccc(C(F)(F)F)cc4)c3c2)c1 [Example 14, N-methyl-N-(5-methylpyridin-3-yl)-3-(4-(trifluoromethyl)phenyl)pyrazolo[1,5-a]pyridine-5-carboxamide] |  |
| 2320 nM | Cc1ccc(OCc2ccn3ncc(-c4ccc(C(F)(F)F)cc4)c3c2)nc1 [Example 15, 5-(((5-methylpyridin-2-yl)oxy)methyl)-3-(4-(trifluoromethyl)phenyl)pyrazolo[1,5-a]pyridine] |  |
|  | Fc1ccc(CCc2ccn3ncc(-c4ccc(C(F)(F)F)cc4)c3c2)cc1 [Example 16, 5-(4-fluorophenethyl)-3-(4-(trifluoromethyl)phenyl)pyrazolo[1,5-a]pyridine] | 477 nM |
| 3 nM | CN(C(=O)c1ccn2ncc(-c3ccc4c(cnn4C)c3)c2c1)c1ccc(C#N)cc1 [Example 17, N-(4-cyanophenyl)-N-methyl-3-(1-methyl-1H-indazol-5-yl)pyrazolo[1,5-a]pyridine-5-carboxamide] |  |
| 3 nM | CC(=O)Nc1ccc(-c2cnn3ccc(C(=O)N(C)c4ccc(C#N)cc4)cc23)cn1 [Example 18, 3-(6-acetamidopyridin-3-yl)-N-(4-cyanophenyl)-N-methylpyrazolo[1,5-a]pyridine-5-carboxamide] |  |

| EC50 [1] | SMILES | EC50 (72 h) |
| --- | --- | --- |
| 472 nM | Fc1ccc(SCc2ccn3ncc(-c4ccc(C(F)(F)F)cc4)c3c2)cc1 [Example 21, 5-(((4-fluorophenyl)thio)methyl)-3-(4-(trifluoromethyl)phenyl)pyrazolo[1,5-a]pyridine] |  |
| 25 nM | [O-][S+](Cc1ccn2ncc(-c3ccc(C(F)(F)F)cc3)c2c1)c1ccc(F)cc1 (centres unmarked) [Example 22, 5-(((4-fluorophenyl)sulfinyl)methyl)-3-(4-(trifluoromethyl)phenyl)pyrazolo[1,5-a]pyridine] |  |
| 2 nM | CN(C(=O)c1ccn2ncc(-c3ccc(-c4ccn[nH]4)cc3)c2c1)c1ccc(C#N)cc1 [Example 23, 3-(4-(1H-pyrazol-5-yl)phenyl)-N-(4-cyanophenyl)-N-methylpyrazolo[1,5-a]pyridine-5-carboxamide] |  |
| 10 nM | CN(C(=O)c1ccn2ncc(-c3ccc(C(F)(F)F)cn3)c2c1)c1ccc(C#N)cc1 [Example 24, N-(4-cyanophenyl)-N-methyl-3-(5-(trifluoromethyl)109yridine-2-yl)pyrazolo[1,5-a]pyridine-5-carboxamide] |  |
| 22 nM | C[C@H](N)C(=O)Nc1ccc(-c2cnn3ccc(C(=O)N(C)c4ccc(C#N)cc4)cc23)cc1 [Example 26, (S)-3-(4-(2-aminopropanamido)phenyl)-N-(4-cyanophenyl)-N-methylpyrazolo[1,5-a]pyridine-5-carboxamide] |  |
| 150 nM | CN(C(=O)c1ccc(F)cc1)c1ccn2ncc(-c3ccc(C(F)(F)F)cc3)c2c1 [Example 29, 4-fluoro-N-methyl-N-(3-(4-(trifluoromethyl)phenyl)pyrazolo[1,5-a]pyridine-5-yl)benzamide] |  |
| 62 nM | CN(c1ccn2ncc(-c3ccc(C(F)(F)F)cc3)c2c1)S(=O)(=O)c1ccc(C#N)cc1 [Example 30, 4-cyano-N-methyl-N-(3-(4-(trifluoromethyl)phenyl)pyrazolo[1,5-a]pyridine-5-yl)benzenesulfonamide] |  |
| 143 nM | CN(c1ccn2ncc(-c3ccc(C(F)(F)F)cc3)c2c1)S(=O)(=O)c1ccc(F)cc1 [Example 31, 4-fluoro-N-methyl-N-(3-(4-(trifluoromethyl)phenyl)pyrazolo[1,5-a]pyridine-5-yl)benzenesulfonamide] |  |
| 59 nM | CN(C(=O)c1ccn2ncc(-c3ccc(C(F)(F)F)cc3)c2c1)c1ccc(C(F)(F)F)cn1 [Example 33, N-methyl-3-(4-(trifluoromethyl)phenyl)-N-(5-(trifluoromethyl)pyridine-2-yl)pyrazolo[1,5-a]pyridine-5-carboxamide] |  |
| 2040 nM | Fc1ccc(CNc2ccn3ncc(-c4ccc(C(F)(F)F)cc4)c3c2)cc1 [Example 35, N-(4-fluorobenzyl)-3-(4-(trifluoromethyl)phenyl)pyrazolo[1,5-a]pyridine-5-amine] |  |
| 390 nM | CN(Cc1ccc(F)cc1)c1ccn2ncc(-c3ccc(C(F)(F)F)cc3)c2c1 [Example 36, N-(4-fluorobenzyl)-N-methyl-3-(4-(trifluoromethyl)phenyl)pyrazolo[1,5-a]pyridine-5-amine] |  |
| 121 nM | CN(C(=O)c1ccc(C(F)(F)F)nc1)c1ccn2ncc(-c3ccc(C(F)(F)F)cc3)c2c1 [Example 37, N-methyl-6-(trifluoromethyl)-N-(3-(4-(trifluoromethyl)phenyl)pyrazolo[1,5-a]pyridine-5-yl)nicotinamide] |  |
| 179 nM | CN(C(=O)c1ccc(C(F)(F)F)cn1)c1ccn2ncc(-c3ccc(C(F)(F)F)cc3)c2c1 [Example 38, N-methyl-5-(trifluoromethyl)-N-(3-(4-(trifluoromethyl)phenyl)pyrazolo[1,5-a]pyridine-5-yl)picolinamide] |  |
| 831 nM | N#Cc1ccc(C(=O)N(CC2CCOCC2)c2ccn3ncc(-c4ccc(C(F)(F)F)cc4)c3c2)cc1 [Example 39, 4-cyano-N-((tetrahydro-2H-pyran-4-yl)methyl)-N-(3-(4-(trifluoromethyl)phenyl)pyrazolo[1,5-a]pyridin-5-yl)benzamide] |  |
| 18 nM | CN(C(=O)c1ccn2ncc(-c3ccc(N)cc3)c2c1)c1ccc(C#N)cc1 [Example 42, 3-(4-aminophenyl)-N-(4-cyanophenyl)-N-methylpyrazolo[1,5-a]pyridine-5-carboxamide] |  |
| 9 nM | CN(C(=O)c1ccn2ncc(-c3ccc(NC(=O)CN)cc3)c2c1)c1ccc(C#N)cc1 [Example 43, 3-(4-(2-aminoacetamido)phenyl)-N-(4-cyanophenyl)-N-methylpyrazolo[1,5-a]pyridine-5-carboxamide] |  |

Reference: patent US8871754B2, “Compounds and compositions for the treatment of parasitic diseases” (IRM LLC, priority 2012, dated 2014)
